# Where a SMILES comes first, the peptide text is derived from it.
# T1: human VPS4 MIT domain (residues 1–84) (Homo sapiens, UniProt Q9UN37)
# T1 construct: The MIT domain (residues 1–84) of human VPS4A (UniProt Q9UN37); GST with human rhinovirus 3C cleavage site (N, cleaved yes); made in house; host or cells: Escherichia coli T7 Express lysY/Iq
# T1 sequence (Q9UN37 1-84): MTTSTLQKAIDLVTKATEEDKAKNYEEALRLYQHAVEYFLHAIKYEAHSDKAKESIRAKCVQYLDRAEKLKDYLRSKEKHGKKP
# Experiments:
# [1] = biological target: VPS4A MIT domain (residues 1–84) (human) (UniProt Q9UN37); experiment: ITC; titrants (GST-pUL71, GST-CHMP6 or peptides) titrated into VPS4A MIT domain in the cell; 25°C; 50 mM HEPES pH 8, 100 mM NaCl, 0.5 mM TCEP; 19×2 μL or 12×3 μL injections; one-site binding model
# [2] = biological target: T1, human VPS4 MIT domain (residues 1–84); experiment: Isothermal titration calorimetry, titrant into VPS4A MIT domain; type: binding; details: ITC, 25°C; for -TΔS / ΔG / N (stoichiometry) / ΔH: n = 2–4
# Protocol: Proteins were expressed in Escherichia coli T7 Express lysY/I^q cells (New England Biolabs) in 2×TY medium at 37°C to an OD600 of 0.8–1.2 before inducing protein expression by addition of 0.4 mM isopropyl β-D-thiogalactopyranoside (IPTG). Expression of GST-tagged pUL71 truncations was induced at 37°C for 3 h, whereas expression of GST-VPS4A MIT domain was induced at 22°C for 16 h. Cells were resuspended at 4°C in GSH lysis buffer (20 mM Tris pH 7.5, 300 mM NaCl, 0.5 mM MgCl2, 1.4 mM β-mercaptoethanol, 0.05% TWEEN-20) supplemented with 200–400 U bovine DNase I (Merck) and 200 μL EDTA-free protease inhibitor cocktail (Merck) before lysis using a TS series cell disruptor (Constant Systems) at 24 kpsi. Lysates were cleared by centrifugation (40,000×g, 30 min, 4°C) and incubated with glutathione Sepharose 4B (Cytiva) for 1 h at 4°C before extensive washing (≥ 20 column volumes) with GSH wash buffer (20 mM Tris pH 7.5, 300 mM NaCl, 1 mM DTT) and elution using wash buffer supplemented with 25 mM reduced L-glutathione. GST-tagged pUL71 truncations were subjected to size-exclusion chromatography (SEC) using a Superdex 200 16/600 column (Cytiva) equilibrated in GSH wash buffer. For GST-VPS4A MIT domain, the GST tag was removed by supplementing the pooled SEC fractions containing the protein of interest with 0.5 mM EDTA and incubating overnight at 4°C with 50 μg of GST-tagged human rhinovirus 3C protease. Free GST and uncleaved GST-VPS4A MIT domain were captured using glutathione Sepharose and the cleaved complex was subjected to SEC using an S75 10/300 GL column (Cytiva) equilibrated in 50 mM HEPES pH 8, 100 mM NaCl, 0.5 mM Tris(2-carboxyethyl)phosphine (TCEP).
# Where necessary, proteins were exchanged into ITC buffer (50 mM HEPES pH 8, 100 mM NaCl, 0.5 mM TCEP) by SEC using Superdex 200 (GST-tagged titrants) or 75 (VPS4 MIT domain) 10/300 GL columns (Cytiva), or by extensive dialysis using tubing with a 3.5 kDa molecular weight cut-off (Pierce). Protein concentrations were estimated from A280 using extinction coefficients calculated from the protein sequence. Peptides encoding residues 166–181 of human CHMP6 or various truncations of HCMV pUL71 were purchased from Genscript at >95% purity and the dry peptides were resuspended in ITC buffer to the desired concentration. ITC experiments were performed at 25°C using an MicroCal PEAQ-ITC automated calorimeter (Malvern Panalytical). Titrants (GST-pUL71, GST-CHMP6 or peptides) were titrated into VPS4A MIT domain using either 19×2 μL or 12×3 μL injections (S1 Table). Data were analysed using the MicroCal PEAQ-ITC analysis software (Malvern Panalytical) and fitted using a one-site binding model.
# S1 Table. Thermodynamic properties of the interactions with VPS4 MIT domain. As quantitated by isothermal titration calorimetry (ITC). Data for independent experiments are shown. For all, the cell contained human VPS4 MIT domain (residues 1-84) and pUL71 is from HCMV unless stated otherwise. –, no binding detected.
# [3] = biological target: yeast Vps4; details: reported; cited from earlier work
molecule,measurement,setting,value
CHMP6 MIM2 peptide (from UniProt Q96FZ7 166-181),Kd,[1],11.2 µM
same,dH,[1],-1.33 kcal/mol
same,stoichiometry N,[1],1.02
GST-pUL71 (300–325) (domain or fragment),Kd,[1],2.25 µM
same,dH,[1],-6.66 kcal/mol
same,stoichiometry N,[1],1.22
GST-pUL71 (283–336) (domain or fragment),Kd,[1],3.02 µM
same,dH,[1],-10.1 kcal/mol
same,stoichiometry N,[1],0.91
HHV6 pU44 vMIM2 peptide (residues 174–199) (from UniProt A0A140AK71 174-199),Kd,[1],30.9 µM
same,dH,[1],-7.17 kcal/mol
same,stoichiometry N,[1],1.18
GST-pUL71(283–361) (domain or fragment),Kd,[1],2.84 µM
same,dH,[1],-9.05 kcal/mol
same,stoichiometry N,[1],1
GST-CHMP6: GST-tagged CHMP6 MIM2 motif (residues 168–181),-TΔS,"[2]; pH 8, mean ± SD",-4.81 ± 0.62 kcal/mol
same,ΔG,"[2]; pH 8, mean ± SD",-7.18 ± 0.12 kcal/mol
same,-T∆S,"[2]; replicate 1, pH 8",-5.25 kcal/mol
same,Kd,"[2]; replicate 1, pH 8",4.76 µM
same,N (sites),"[2]; replicate 1, pH 8",0.786
same,∆G,"[2]; replicate 1, pH 8",-7.26 kcal/mol
same,∆H,"[2]; replicate 1, pH 8",-2.02 kcal/mol
same,-T∆S,"[2]; replicate 2, pH 8",-4.37 kcal/mol
same,Kd,"[2]; replicate 2, pH 8",6.32 µM
same,N (sites),"[2]; replicate 2, pH 8",0.894
same,∆G,"[2]; replicate 2, pH 8",-7.09 kcal/mol
same,∆H,"[2]; replicate 2, pH 8",-2.72 kcal/mol
CC[C@H](C)[C@H](NC(=O)[C@@H](N)CCC(=O)O)C(=O)N[C@@H](CC(=O)O)C(=O)N1CCC[C@H]1C(=O)N[C@@H](CC(C)C)C(=O)N[C@@H](CC(C)C)C(=O)N[C@@H](Cc1c[nH]cn1)C(=O)N[C@@H](CCC(N)=O)C(=O)N[C@@H](CCC(=O)O)C(=O)N[C@H](C(=O)NCC(=O)N[C@@H](CC(C)C)C(=O)N[C@@H](Cc1ccc(O)cc1)C(=O)N[C@@H](CCC(N)=O)C(=O)N[C@@H](C)C(=O)N[C@@H](CC(C)C)C(=O)N1CCC[C@H]1C(=O)N[C@@H](CC(N)=O)C(=O)N[C@@H](C)C(=O)N[C@H](C(=O)N[C@H](C(=O)N[C@@H](CCC(=O)O)C(=O)N[C@@H](C)C(=O)N1CCC[C@H]1C(=O)N[C@@H](CO)C(=O)N[C@@H](CCC(=O)O)C(=O)O)[C@@H](C)O)C(C)C)[C@@H](C)O [HHV6 pUL71 peptide] (H-EIDPLLHQETGLYQALPNAVTEAPSE-OH; N-terminus and C-terminus assumed),-TΔS,"[2]; pH 8, mean ± SD",1.01 ± 1.62 kcal/mol
same,N (stoichiometry),"[2]; pH 8, mean ± SD",1.18 ± 0.03
same,ΔG,"[2]; pH 8, mean ± SD",-6.16 ± 0.11 kcal/mol
same,ΔH,"[2]; pH 8, mean ± SD",-7.17 ± 1.52 kcal/mol
same,-T∆S,"[2]; replicate 1, pH 8",-0.117 kcal/mol
same,N (sites),"[2]; replicate 1, pH 8",1.16
same,∆G,"[2]; replicate 1, pH 8",-6.26 kcal/mol
same,∆H,"[2]; replicate 1, pH 8",-6.14 kcal/mol
same,-T∆S,"[2]; replicate 2, pH 8",0.27 kcal/mol
same,N (sites),"[2]; replicate 2, pH 8",1.22
same,∆G,"[2]; replicate 2, pH 8",-6.18 kcal/mol
same,∆H,"[2]; replicate 2, pH 8",-6.45 kcal/mol
same,-T∆S,"[2]; replicate 3, pH 8",2.87 kcal/mol
same,N (sites),"[2]; replicate 3, pH 8",1.17
same,∆G,"[2]; replicate 3, pH 8",-6.04 kcal/mol
same,∆H,"[2]; replicate 3, pH 8",-8.91 kcal/mol
CC[C@H](C)[C@H](NC(=O)[C@H](CCC(N)=O)NC(=O)[C@@H](N)CCC(=O)O)C(=O)N[C@@H](CCC(=O)O)C(=O)N[C@@H](CC(C)C)C(=O)N1CCC[C@H]1C(=O)N[C@@H](CCC(=O)O)C(=O)N[C@H](C(=O)N1CCC[C@H]1C(=O)N[C@@H](CO)C(=O)N[C@@H](CCC(=O)O)C(=O)N1CCC[C@H]1C(=O)N[C@@H](CC(C)C)C(=O)N1CCC[C@H]1C(=O)N[C@@H](CCC(=O)O)C(=O)N[C@@H](CCCCN)C(=O)O)C(C)C [CHMP6 peptide] (H-EQIELPEVPSEPLPEK-OH; N-terminus and C-terminus assumed),-TΔS,"[2]; pH 8, mean ± SD",-5.52 ± 0.58 kcal/mol
same,N (stoichiometry),"[2]; pH 8, mean ± SD",1.02 ± 0.17
same,ΔG,"[2]; pH 8, mean ± SD",-6.85 ± 0.38 kcal/mol
same,ΔH,"[2]; pH 8, mean ± SD",-1.33 ± 0.51 kcal/mol
same,-T∆S,"[2]; replicate 1, pH 8",-6.36 kcal/mol
same,N (sites),"[2]; replicate 1, pH 8",1
same,∆G,"[2]; replicate 1, pH 8",-7.2 kcal/mol
same,∆H,"[2]; replicate 1, pH 8",-0.844 kcal/mol
same,-T∆S,"[2]; replicate 2, pH 8",-5.11 kcal/mol
same,N (sites),"[2]; replicate 2, pH 8",0.79
same,∆G,"[2]; replicate 2, pH 8",-7.15 kcal/mol
same,∆H,"[2]; replicate 2, pH 8",-2.04 kcal/mol
same,-T∆S,"[2]; replicate 3, pH 8",-5.14 kcal/mol
same,N (sites),"[2]; replicate 3, pH 8",1.1
same,∆G,"[2]; replicate 3, pH 8",-6.46 kcal/mol
same,∆H,"[2]; replicate 3, pH 8",-1.32 kcal/mol
same,-T∆S,"[2]; replicate 4, pH 8",-5.46 kcal/mol
same,N (sites),"[2]; replicate 4, pH 8",1.17
same,∆G,"[2]; replicate 4, pH 8",-6.57 kcal/mol
same,∆H,"[2]; replicate 4, pH 8",-1.1 kcal/mol
pUL71 (300–325) peptide,dH,[1],-6.22 kcal/mol
same,stoichiometry N,[1],1.38
GST-pUL71 (300–361) (domain or fragment),Kd,[1],2.98 µM
same,dH,[1],-10.1 kcal/mol
same,stoichiometry N,[1],0.87
CC[C@H](C)[C@H](NC(=O)[C@H](CCC(=O)O)NC(=O)[C@H](CCCNC(=N)N)NC(=O)[C@H](CCC(=O)O)NC(=O)[C@H](Cc1c[nH]cn1)NC(=O)[C@H](CC(N)=O)NC(=O)[C@@H](NC(=O)[C@@H]1CCCN1)[C@@H](C)O)C(=O)N[C@@H](CC(C)C)C(=O)N[C@@H](CC(=O)O)C(=O)N[C@@H](CC(C)C)C(=O)N[C@@H](CCSC)C(=O)N[C@@H](CCCNC(=N)N)C(=O)N[C@@H](Cc1c[nH]cn1)C(=O)N[C@@H](CO)C(=O)N1CCC[C@H]1C(=O)N[C@@H](CC(=O)O)C(=O)N[C@H](C(=O)N1CCC[C@H]1C(=O)N[C@@H](CCCNC(=N)N)C(=O)N[C@@H](CCC(=O)O)C(=O)N[C@@H](C)C(=O)N[C@H](C(=O)N[C@@H](CCSC)C(=O)N[C@@H](CO)C(=O)N1CCC[C@H]1C(=O)O)C(C)C)C(C)C [pUL71 (300–325) peptide] (H-PTNHEREILDLMRHSPDVPREAVMSP-OH),Kd,"[2]; 50 mM HEPES pH 8, 100 mM NaCl, 0.5 mM TCEP, one-site model, mean ± SD, n = 2–4 independent experiments",5.59 ± 0.34 µM
"Vfa1: yeast protein Vfa1 that is proposed to positively regulate Vps4 activity (protein, UniProt P40080 1-203, looked up) VPS4-associated protein 1: MINEYVARKVALKDMQPCAICSKPSTTVLYNASGPDWLYTCEIHLQDNPQFVIPLYSTEYNEAVAQLKLVKGKMDSLTSAQTQLGSWDGWVTKIFSKKEKETNNSKDPDPTTTDSTDTSPQAKNDAEILSETKKQYSKILDKVTELQRKNRKYELAKIMFESRLLRKRTEQVNRERYLKEQENYSNTDPEELLRKHVFPSVPK",Kd,[3],1.8 µM
same,fold tighter binding to Vps4 than Vps20,[3],approximately 100 fold
